# US20210032257A1, “(E)-1-(4-(DIMETHYLAMINO)BUT-2-ENOYL)PYRROLIDIN-3-YL 4-((3-ISOPROPYL-5-METHYLPYRAZOLO[1,5-A]PYRIMIDIN-7-YL)AMINO)PIPERIDINE-1-CARBOXYLATE FOR INHIBITING CDK7” (Eli Lilly and Company, priority 2017, published 2021)
# What was measured:
# Test in all cases: Biomarker study proliferation (CellTiter-Glo)
# Assay type in all cases: cell-based
# SiHa = test system: SiHa
# Method: (§1) Cancer cell lines are profiled to evaluate the anti-proliferative activity of a test compound in-vitro. Mutation, copy number and gene expression information of ARID1A, KMT2C, KMT2D and/or RB1 genes across cancer cell lines is obtained from COSMIC database (cancer.sanger.ac.uk) and cBioportal (http://www.cbioportal.org/). Cells are cultured in growth medium and plated into a 96-well plate in 100 μL/well growth medium at 5000 cells/well then incubated at 37° C., 5% CO2 overnight. Cells are cultured using supplier recommended media and conditions well known in the art, for example with RPMI 1640 with or without HEPES & L-Glutamine (Thermo SH30255.01) and 1 mM Sodium Pyruvate, and 10% FBS(Gibco cat #10082). The 1000× intermediate dilution plate is prepared by making a 10 mM working solution of a test sample in DMSO and performing 1:3 dilutions in DMSO for 10 points. The 10× dosing plate is prepared by adding 2 μL from the 1000× intermediate dilution plate to 198 μL of OPTIMEM®+10% FBS and mixing well. The cell plate is then treated by adding 11 μL from the 10× dosing plate into the 100 μL/well cell plate for a 1× final concentration. Staurosporine is used as a maximum growth inhibition control at a final concentration of 5 μM. The cell plate is incubated for 7 days at 37° C., 5% CO2. Seven days after treatment, Cell Titer-Glo® (Promega cat #G7571) assay buffer and substrate are removed from −20° C. and allowed to equilibrate to RT. Assay buffer is added to the substrate and swirled gently to mix. The CELL TITER-GLO® reagent (100 μL/well) is added to the cell plate and incubated at RT for 15 minutes. After 15 minutes, luminescence is read using a plate reader. Data is analyzed in Excel and graphed in GraphPad Prism. Statistical analysis and p value is calculated using Mann-Whitney nonparameteric t tests using GraphPad Prism.
# (§2) Anti-proliferative effects of a test compound are categorized as insensitive (IC50≥1 μM), cytostatic (IC50<1 μM and % inhibition <70%) or cytotoxic (IC50<1 μM and % inhibition ≥70%).
# HUH7 = test system: HUH7
# Method: as §1, §2
# CORL311 = test system: CORL311
# Method: as §1, §2
# MKN45 = test system: MKN45
# Method: as §1, §2
# LN18 = test system: LN18
# Method: as §1, §2
# JHH7 = test system: JHH7
# Method: as §1, §2
# HCC1569 = test system: HCC1569
# Method: as §1, §2
# NCIH82 = test system: NCIH82
# Method: as §1, §2
# HCT8 = test system: HCT8
# Method: as §1, §2
# HCC2218 = test system: HCC2218
# Method: as §1, §2
# NCIH1155 = test system: NCIH1155
# Method: as §1, §2
# HGC27 = test system: HGC27
# Method: as §1, §2
# MDAMB231 = test system: MDAMB231
# Method: as §1, §2
# SNU1079 = test system: SNU1079
# Method: as §1, §2
# BT20 = test system: BT20
# Method: as §1, §2
# NCIH1666 = test system: NCIH1666
# Method: as §1, §2
# SKOV3 = test system: SKOV3
# Method: as §1, §2
# EVSAT = test system: EVSAT
# Method: as §1, §2
# NCIH1734 = test system: NCIH1734
# Method: as §1, §2
# [1] = 168 h, read-out: Anti-proliferation effect IC50
compound,measurement,setting,value
"Cc1cc(NC2CCN(C(=O)O[C@H]3CCN(C(=O)/C=C/CN(C)C)C3)CC2)n2ncc(C(C)C)c2n1 [Example 1, [(3S)-1-[(E)-4-(dimethylamino)but-2-enoyl]pyrrolidin-3-yl] 4-[(3-isopropyl-5-methyl-pyrazolo[1,5-a]pyrimidin-7-yl)amino]piperidine-1-carboxylate]",Anti-proliferation effect % Inh.,"SiHa; CERVIX, 7 days",58%
same,Anti-proliferation effect Outcome,"SiHa; ENDOMETRIUM, 7 days",Cytostatic (cytostatic (IC50<1 μM and % inhibition <70%))
same,IC50,"SiHa; Homo sapiens, 168 h, read-out: Anti-proliferation effect IC50",105 nM
same,Anti-proliferation effect % Inh.,"HUH7; HUH7, LIVER, 7 days",64%
same,Anti-proliferation effect Outcome,"HUH7; HUH7, LIVER, 7 days",Cytostatic (cytostatic (IC50<1 μM and % inhibition <70%))
same,IC50,"HUH7; Homo sapiens, Huh-7, 168 h, read-out: Anti-proliferation effect IC50",175 nM
same,IC50,CORL311; [1],95 nM
same,Anti-proliferation effect % Inh.,"CORL311; CORL311, LUNG, 7 days",75%
same,Anti-proliferation effect Outcome,"CORL311; CORL311, LUNG, 7 days",Cytotoxic (cytotoxic (IC50<1 μM and % inhibition ≥70%))
same,IC50,"MKN45; Homo sapiens, MKN-45, 168 h, read-out: Anti-proliferation effect IC50",56 nM
same,Anti-proliferation effect % Inh.,"MKN45; MKN45, STOMACH, 7 days",79%
same,Anti-proliferation effect Outcome,"MKN45; MKN45, STOMACH, 7 days",Cytotoxic (cytotoxic (IC50<1 μM and % inhibition ≥70%))
same,IC50,"LN18; Homo sapiens, LN-18, 168 h, read-out: Anti-proliferation effect IC50",15 nM
same,Anti-proliferation effect % Inh.,"LN18; LN18, CNS, 7 days",91%
same,Anti-proliferation effect Outcome,"LN18; LN18, CNS, 7 days",Cytotoxic (cytotoxic (IC50<1 μM and % inhibition ≥70%))
same,IC50,"JHH7; JHH7, 168 h, read-out: Anti-proliferation effect IC50",27 nM
same,Anti-proliferation effect % Inh.,"JHH7; JHH7, LIVER, 7 days",88%
same,Anti-proliferation effect Outcome,"JHH7; JHH7, LIVER, 7 days",Cytotoxic (cytotoxic (IC50<1 μM and % inhibition ≥70%))
same,Anti-proliferation effect % Inh.,"HCC1569; HCC1569, BREAST, 7 days",45%
same,Anti-proliferation effect Outcome,"HCC1569; HCC1569, BREAST, 7 days",Cytostatic (cytostatic (IC50<1 μM and % inhibition <70%))
same,IC50,"HCC1569; Homo sapiens, HCC1569, 168 h, read-out: Anti-proliferation effect IC50",67 nM
same,IC50,"NCIH82; Homo sapiens, NCI-H82, 168 h, read-out: Anti-proliferation effect IC50",699 nM
same,Anti-proliferation effect % Inh.,"NCIH82; NCIH82, LUNG, 7 days",22%
same,Anti-proliferation effect Outcome,"NCIH82; NCIH82, LUNG, 7 days",Cytostatic (cytostatic (IC50<1 μM and % inhibition <70%))
same,Anti-proliferation effect % Inh.,"HCT8; HCT8, INTESTINE, 7 days",3%
same,Anti-proliferation effect Outcome,"HCT8; HCT8, INTESTINE, 7 days",Cytostatic (cytostatic (IC50<1 μM and % inhibition <70%))
same,IC50,"HCT8; Homo sapiens, HCT-8, 168 h, read-out: Anti-proliferation effect IC50",981 nM
same,Anti-proliferation effect % Inh.,"HCC2218; HCC2218, BREAST, 7 days",41%
same,Anti-proliferation effect Outcome,"HCC2218; HCC2218, BREAST, 7 days",Cytostatic (cytostatic (IC50<1 μM and % inhibition <70%))
same,IC50,"HCC2218; Homo sapiens, HCC2218, 168 h, read-out: Anti-proliferation effect IC50",560 nM
same,IC50,"NCIH1155; Homo sapiens, NCI-H1155, 168 h, read-out: Anti-proliferation effect IC50",43 nM
same,Anti-proliferation effect % Inh.,"NCIH1155; NCIH1155, LUNG, 7 days",51%
same,Anti-proliferation effect Outcome,"NCIH1155; NCIH1155, LUNG, 7 days",Cytostatic (cytostatic (IC50<1 μM and % inhibition <70%))
same,Anti-proliferation effect % Inh.,"HGC27; HGC27, STOMACH, 7 days",78%
same,Anti-proliferation effect Outcome,"HGC27; HGC27, STOMACH, 7 days",Cytotoxic (cytotoxic (IC50<1 μM and % inhibition ≥70%))
same,IC50,"HGC27; Homo sapiens, HGC-27, 168 h, read-out: Anti-proliferation effect IC50",68 nM
same,IC50,"MDAMB231; Homo sapiens, MDA-MB-231, 168 h, read-out: Anti-proliferation effect IC50",2820 nM
same,Anti-proliferation effect % Inh.,"MDAMB231; MDAMB231, BREAST, 7 days",23%
same,Anti-proliferation effect Outcome,"MDAMB231; MDAMB231, BREAST, 7 days",Insensitive (insensitive (IC50≥1 μM))
same,IC50,SNU1079; [1],38 nM
same,Anti-proliferation effect % Inh.,"SNU1079; SNU1079, BILIARY, 7 days",89%
same,Anti-proliferation effect Outcome,"SNU1079; SNU1079, BILIARY, 7 days",Cytotoxic (cytotoxic (IC50<1 μM and % inhibition ≥70%))
same,Anti-proliferation effect % Inh.,"BT20; BT20, BREAST, 7 days",45%
same,Anti-proliferation effect Outcome,"BT20; BT20, BREAST, 7 days",Cytostatic (cytostatic (IC50<1 μM and % inhibition <70%))
same,IC50,"BT20; Homo sapiens, BT-20, 168 h, read-out: Anti-proliferation effect IC50",373 nM
same,IC50,"NCIH1666; Homo sapiens, NCI-H1666, 168 h, read-out: Anti-proliferation effect IC50",161 nM
same,Anti-proliferation effect % Inh.,"NCIH1666; NCIH1666, LUNG, 7 days",59%
same,Anti-proliferation effect Outcome,"NCIH1666; NCIH1666, LUNG, 7 days",Cytostatic (cytostatic (IC50<1 μM and % inhibition <70%))
same,IC50,"SKOV3; Homo sapiens, SK-OV-3, 168 h, read-out: Anti-proliferation effect IC50",> 10000 nM
same,Anti-proliferation effect % Inh.,"SKOV3; SKOV3, OVARY, 7 days",27%
same,Anti-proliferation effect Outcome,"SKOV3; SKOV3, OVARY, 7 days",Insensitive (insensitive (IC50≥1 μM))
same,Anti-proliferation effect % Inh.,"EVSAT; EVSAT, BREAST, 7 days",79%
same,Anti-proliferation effect Outcome,"EVSAT; EVSAT, BREAST, 7 days",Cytotoxic (cytotoxic (IC50<1 μM and % inhibition ≥70%))
same,IC50,"EVSAT; Homo sapiens, EVSA-T, 168 h, read-out: Anti-proliferation effect IC50",40 nM
same,IC50,"NCIH1734; Homo sapiens, NCI-H1734, 168 h, read-out: Anti-proliferation effect IC50",24 nM
same,Anti-proliferation effect % Inh.,"NCIH1734; NCIH1734, LUNG, 7 days",76%
same,Anti-proliferation effect Outcome,"NCIH1734; NCIH1734, LUNG, 7 days",Cytotoxic (cytotoxic (IC50<1 μM and % inhibition ≥70%))
